Measurements published in PubChem BioAssay (NCI).
“And” between values parts separate entries of the source, which are not always exact repeats. Equal entries are not always repeated.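 Briefly, cells in 96-well plates were exposed to five compound concentrations for 48 h, and endpoints were estimated by linear interpolation. Here, GI50 denotes the concentration required for 50% inhibition of growth. TGI: total growth inhibition.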 Where a SMILES comes first, the peptide text is derived from it. [ ]: non-standard residue; d: D form. Phe(4-Cl) = N[CH](Cc1ccc(Cl)cc1)C(=O)O

How the values were obtained:
Test in all cases: NCI anticancer screen, dose series, 48 h
ACHN renal = test system: ACHN renal
COLO 205 colon = test system: COLO 205 colon
HCT-116 colon = test system: HCT-116 colon
HL-60(TB) leukemia = test system: HL-60(TB) leukemia
OVCAR-4 ovarian = test system: OVCAR-4 ovarian
RPMI-8226 leukemia = test system: RPMI-8226 leukemia
SF-295 CNS = test system: SF-295 CNS
UO-31 renal = test system: UO-31 renal
HOP-92 NSCLC = test system: HOP-92 NSCLC
DU-145 prostate = test system: DU-145 prostate

| Structure (SMILES) | TGI (ACHN renal) | TGI (COLO 205 colon) | TGI (HCT-116 colon) | TGI (HL-60(TB) leukemia) | TGI (OVCAR-4 ovarian) | TGI (RPMI-8226 leukemia) | TGI (SF-295 CNS) | TGI (UO-31 renal) | TGI (HOP-92 NSCLC) | GI50 (ACHN renal) | GI50 (COLO 205 colon) | GI50 (DU-145 prostate) | TGI (DU-145 prostate) | GI50 (HCT-116 colon) | GI50 (HOP-92 NSCLC) | GI50 (OVCAR-4 ovarian) | GI50 (RPMI-8226 leukemia) | GI50 (SF-295 CNS) | GI50 (UO-31 renal) | GI50 (HL-60(TB) leukemia) |
| --- | --- | --- | --- | --- | --- | --- | --- | --- | --- | --- | --- | --- | --- | --- | --- | --- | --- | --- | --- | --- |
| CC(O)C(NC(=O)C(Cc1ccccc1)NC(=O)C(NC(=O)C(CCCCN)NC(=O)C(Cc1c[nH]c2ccccc12)NC(=O)C(Cc1ccc(O)cc1)NC(=O)C(Cc1ccc(Cl)cc1)NC(=O)C(N)Cc1ccccc1)C(C)O)C(N)=O (stereo not drawn) (H-F[Phe(4-Cl)]YWKTFT-NH2; configuration not given here) | 40.9 µM | 51.7 µM | 49 µM | 28.6 µM | 58.7 µM | 33.5 µM | 21.3 µM | 37.5 µM |  |  |  |  |  |  |  |  |  |  |  |  |
| CC(C)(C)OC(=O)Cc1ccc2c(ccn2Cc2ccccc2)c1 | > 100 µM | > 100 µM | > 100 µM | > 100 µM | > 100 µM |  | > 100 µM | > 100 µM | > 100 µM |  |  |  |  |  |  |  |  |  |  |  |
| Cc1ccccc1N(CCC#N)C1=NN(C(=O)CC(=O)Nc2ccccc2)C(c2ccccc2)C1 (stereo not drawn) | > 100 µM | > 100 µM | > 100 µM | > 100 µM | > 100 µM | > 100 µM | > 100 µM | > 100 µM | > 100 µM |  |  |  |  |  |  |  |  |  |  |  |
| O=c1cccccc1NCCCNc1cccccc1=O | > 100 µM | > 100 µM | > 100 µM | > 100 µM |  | > 100 µM | > 100 µM | > 100 µM | > 100 µM |  |  |  |  |  |  |  |  |  |  |  |
| CCN1C(=O)CNc2ncc(-c3ccc(-c4ncn[nH]4)nc3C)nc21 | 2.16 µM | 1.72 µM | 4.62 µM |  | 1.13 µM | 0.553 µM | 0.679 µM | 0.599 µM | 0.168 µM | 0.14 µM | 0.16 µM | 0.253 µM | 12.7 µM | 0.277 µM | 0.0212 µM | 0.103 µM | 0.0454 µM | 0.105 µM | 0.0248 µM |  |
| CN(C)CC/C(=N\Nc1c(Cl)cccc1Cl)c1ccccc1 | 50.5 µM | 29.4 µM | 29.1 µM | 39.4 µM | 47.4 µM | 46.8 µM | 35.9 µM | 22.5 µM |  |  |  |  |  |  |  |  |  |  |  |  |
| O=C(CCl)Nc1ccc(Cl)cc1 | 10.6 µM | 3.61 µM | 10.2 µM |  | 25.3 µM | 9.45 µM | 13.3 µM | 24.1 µM | 20.7 µM | 3.13 µM | 1.98 µM | 4.92 µM | 17.4 µM | 2.7 µM | 6.67 µM | 5.68 µM | 3.14 µM | 3.45 µM | 8.07 µM |  |
| O=C1NC(=O)c2ccc([N+](=O)[O-])c3cccc1c23 | 33.7 µM | 30.9 µM | 23.9 µM |  | 35.5 µM | 37.7 µM | 32.8 µM | 29.8 µM | 37.2 µM |  |  |  | > 100 µM |  |  |  |  |  |  |  |
| COc1ccc(N2C(=O)C3c4[nH]c5ccc(C)cc5c4C4CCC(C(C)(C)C)CC4C3C2=O)cc1 (stereo not drawn) | 25.5 µM | > 100 µM | 40.5 µM | > 100 µM | 10.8 µM | 82.1 µM | 23.3 µM | 40.3 µM |  |  |  |  | > 100 µM |  |  |  |  |  |  |  |
| CC(=O)OC[C@]12CC[C@H]3[C@@H](C[C@H]4O[C@]45[C@@H](O)C=CC(=O)[C@]35C)[C@@H]1CC[C@@H]2[C@H](C)[C@H]1CC(C)=C(C)C(=O)O1 | 0.792 µM and 1.16 µM | 0.91 µM | 0.6 µM and 0.424 µM | 0.642 µM and 0.37 µM | 0.9 µM and 1.06 µM | 0.846 µM and 0.446 µM | 4.23 µM | 2 µM | 0.722 µM and 1.27 µM | 0.498 µM and 0.515 µM | 0.348 µM and 0.31 µM |  |  | 0.277 µM and 0.166 µM | 0.22 µM and 0.189 µM | 0.571 µM and 0.331 µM | 0.26 µM and 0.107 µM | 0.974 µM and 1.89 µM | 0.84 µM and 0.776 µM | 0.243 µM and 0.119 µM |
